According to US20240391862A1, “(1,4,5-TRISUBSTITUTED-1H-PYRAZOL-3-YL)OXY-2-ALKOXY ALKYL ACIDS AND THEIR DERIVATIVES, THEIR SALTS AND THEIR USE AS HERBICIDAL AGENTS” (Bayer AKtiengesellschaft, priority 2021, published 2024):

Tests used:
AMARE = experiment: Pre-emergence herbicidal effect, greenhouse pot test; format: in vivo, Amaranthus retroflexus; conditions: scored visually after about 3 weeks vs untreated controls; for pest or weed control at 320 g/ha: Amaranthus retroflexus, 504 h, read-out: Pre-emergence effect at 320 g/ha against AMARE in %
Excerpt: (§1) Seeds of monocotyledonous and dicotyledonous weed plants and crop plants are placed in plastic or organic planting pots and covered with soil. The compounds of the invention, formulated in the form of wettable powders (WP) or as emulsion concentrates (EC), are then applied to the surface of the covering soil as aqueous suspension or emulsion with addition of 0.5% additive at a water application rate equivalent to 600 l/ha. After the treatment, the pots are placed in a greenhouse and kept under good growth conditions for the trial plants. After about 3 weeks, the effect of the preparations is scored visually in comparison with untreated controls as percentages. For example, 100% activity=the plants have died, 0% activity=like control plants.
(§2) Tables 1a to 19c below show the effects/crop compatibilities of selected compounds of the general formula (I) on various harmful plants at an application rate corresponding to 20 to 320 g/ha, which were obtained by the trial procedure specified above.
(§3) • ALOMY: Alopecurus myosuroides SETVI: Setaria viridis • AVEFA: Avena fatua POLCO: Fallopia convolvulus • AMARE: Amaranthus retroflexus ECHCG: Echinochloa crus-galli • LOLRJ: Lolium rigidum STEME: Stellaria media • VERPE: Veronica persica MATIN: Tripleurospermum inodorum • DIGSA: Digitaria sanguinalis ABUTH: Abutylon threophrasti • TRZAS: Triticum aestivum VIOTR: Viola tricolor • BRSNW: Brassica napus ZEAMX: Zea mays • PHBPU: Ipomoea purpurea GLXMA: Glycine max • ORYSA: Oryza sativa HORMU: Hordeum murinum

VIOTR = experiment: Post-emergence herbicidal effect, greenhouse pot test; format: in vivo, Viola tricolor; conditions: Viola tricolor, 504 h, 320 g/ha, read-out: Post-emergence effect against VIOTR in %
Outline: (§4)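 Greenhouse pot plants in sandy loam receive a one-leaf-stage spray at 20 to 320 g/ha. Activity is assessed visually around 3 weeks afterwards on a 0–100% scale, where 100% means the plants have died.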

ECHCG [1] = experiment: as above; format: in vivo, Echinochloa crus-galli; conditions: Echinochloa crus-galli, 504 h, read-out: Post-emergence effect against ECHCG in %
Outline: as §4

ALOMY [2] = experiment: as above; format: in vivo, Alopecurus myosuroides; conditions: Alopecurus myosuroides, 504 h, visual rating about 3 weeks after treatment, read-out: Post-emergence effect against ALOMY
Outline: as §4

GLXMA = experiment: Pre-emergence herbicidal effect and crop plant compatibility, greenhouse pot test; format: in vivo, Glycine max; conditions: 80 g/ha, scored visually after about 3 weeks vs untreated controls
Excerpt: as §1, §2, §3

SETVI [3] = experiment: Post-emergence herbicidal effect, greenhouse pot test; format: in vivo, Setaria viridis; conditions: Setaria viridis, 504 h, read-out: Post-emergence effect against SETVI in %
Outline: as §4

TRZAS = experiment: Pre-emergence herbicidal effect and crop plant compatibility, greenhouse pot test; format: in vivo, Triticum aestivum; conditions: 80 g/ha, scored visually after about 3 weeks vs untreated controls
Excerpt: as §1, §2, §3

MATIN [4] = experiment: Post-emergence herbicidal effect, greenhouse pot test; format: in vivo, Tripleurospermum inodorum; conditions: Tripleurospermum inodorum, 504 h, read-out: Post-emergence effect against MATIN in %
Outline: as §4

AVEFA [5] = experiment: as above; format: in vivo, Avena fatua; conditions: Avena fatua, 504 h, 320 g/ha, visual rating about 3 weeks after treatment, read-out: Post-emergence effect against AVEFA
Outline: as §4

POLCO [6] = experiment: Pre-emergence herbicidal effect, greenhouse pot test; format: in vivo, Fallopia convolvulus; conditions: Fallopia convolvulus, 504 h, 320 g/ha, scored visually after about 3 weeks vs untreated controls, read-out: Pre-emergence effect at 320 g/ha against POLCO in %
Excerpt: as §1, §2, §3

ALOMY [7] = experiment: as above; format: in vivo, Alopecurus myosuroides; conditions: 320 g/ha, scored visually after about 3 weeks vs untreated controls
Excerpt: as §1, §2, §3

PHBPU [8] = experiment: as above; format: in vivo, Ipomoea purpurea; conditions: 320 g/ha, scored visually after about 3 weeks vs untreated controls
Excerpt: as §1, §2, §3

MATIN [9] = experiment: as above; format: in vivo, Tripleurospermum inodorum; conditions: scored visually after about 3 weeks vs untreated controls; for pest or weed control at 320 g/ha: Tripleurospermum inodorum, 504 h, read-out: Pre-emergence effect at 320 g/ha against MATIN in %
Excerpt: as §1, §2, §3

PHBPU [10] = experiment: Post-emergence herbicidal effect, greenhouse pot test; format: in vivo, Ipomoea purpurea; conditions: Ipomoea purpurea, 504 h, read-out: Post-emergence effect against PHBPU in %
Outline: as §4

ECHCG [11] = experiment: Pre-emergence herbicidal effect, greenhouse pot test; format: in vivo, Echinochloa crus-galli; conditions: Echinochloa crus-galli, 504 h, 320 g/ha, scored visually after about 3 weeks vs untreated controls, read-out: Pre-emergence effect at 320 g/ha against ECHCG in %
Excerpt: as §1, §2, §3

LOLRI [12] = experiment: as above; format: in vivo, Lolium rigidum; conditions: 320 g/ha, scored visually after about 3 weeks vs untreated controls
Excerpt: as §1, §2, §3

VERPE = experiment: Post-emergence herbicidal effect, greenhouse pot test; format: in vivo, Veronica persica; conditions: Veronica persica, 504 h, read-out: Post-emergence effect against VERPE in %
Outline: as §4

DIGSA [13] = experiment: Pre-emergence herbicidal effect, greenhouse pot test; format: in vivo, Digitaria sanguinalis; conditions: 320 g/ha, scored visually after about 3 weeks vs untreated controls
Excerpt: as §1, §2, §3

POLCO [14] = experiment: Post-emergence herbicidal effect, greenhouse pot test; format: in vivo, Fallopia convolvulus; conditions: Fallopia convolvulus, 504 h, read-out: Post-emergence effect against POLCO in %
Outline: as §4

LOLRI [15] = experiment: as above; format: in vivo, Lolium rigidum; conditions: Lolium rigidum, 504 h, read-out: Post-emergence effect against LOLRI in %
Outline: as §4

AVEFA [16] = experiment: Pre-emergence herbicidal effect, greenhouse pot test; format: in vivo, Avena fatua; conditions: 320 g/ha, scored visually after about 3 weeks vs untreated controls
Excerpt: as §1, §2, §3

DIGSA [17] = experiment: Post-emergence herbicidal effect, greenhouse pot test; format: in vivo, Digitaria sanguinalis; conditions: Digitaria sanguinalis, 504 h, visual rating about 3 weeks after treatment, read-out: Post-emergence effect against DIGSA
Outline: as §4

SETVI [18] = experiment: Pre-emergence herbicidal effect, greenhouse pot test; format: in vivo, Setaria viridis; conditions: Setaria viridis, 504 h, 320 g/ha, scored visually after about 3 weeks vs untreated controls, read-out: Pre-emergence effect at 320 g/ha against SETVI in %
Excerpt: as §1, §2, §3

ZEAMX = experiment: Pre-emergence herbicidal effect and crop plant compatibility, greenhouse pot test; format: in vivo, Zea mays; conditions: 80 g/ha, scored visually after about 3 weeks vs untreated controls
Excerpt: as §1, §2, §3

SMILES	Pre-emergence effect at 80 g/ha against AMARE in % (AMARE) [%]	pest or weed control at 320 g/ha (AMARE) [%]	pest or weed control at 80 g/ha (ECHCG [1]) [%]	pest or weed control at 320 g/ha (ECHCG [1]) [%]	pest or weed control at 80 g/ha (ALOMY [2]) [%]	pest or weed control at 320 g/ha (ALOMY [2]) [%]	Pre-emergence effect at 80 g/ha against GLXMA in % (GLXMA) [%]	pest or weed control at 320 g/ha (SETVI [3]) [%]	Pre-emergence effect at 80 g/ha against TRZAS in % (TRZAS) [%]	pest or weed control at 320 g/ha (MATIN [4]) [%]	pest or weed control at 320 g/ha (POLCO [6]) [%]	Pre-emergence effect at 320 g/ha against PHBPU in % (PHBPU [8]) [%]	pest or weed control at 320 g/ha (MATIN [9]) [%]	pest or weed control at 320 g/ha (PHBPU [10]) [%]	pest or weed control at 320 g/ha (ECHCG [11]) [%]	also measured
COC(=O)C(OC)Oc1nn(-c2ncccc2F)c(-c2ccccc2)c1Br (centres unmarked) [Example I-06]	90	100	80	80	90	90	10	80	10	80	80	90	90	80	100	pest or weed control at 320 g/ha (VIOTR): 80%; pest or weed control at 80 g/ha (SETVI [3]; 80 g/ha): 80%; pest or weed control at 80 g/ha (MATIN [4]; 80 g/ha): 80%; pest or weed control at 320 g/ha (AVEFA [5]): 80%; Pre-emergence effect at 320 g/ha against ALOMY in % (ALOMY [7]): 90%; Pre-emergence effect at 80 g/ha against MATIN in % (MATIN [9]; 80 g/ha): 80%; pest or weed control at 80 g/ha (PHBPU [10]; 80 g/ha): 80%
COC(=O)C(OC)Oc1nn(-c2ncccc2F)c(-c2ccc(F)cc2F)c1Br (centres unmarked) [Example I-07]	80	90	80	80	90	90	10	80	20	80	80	90	90	80	90	Pre-emergence effect at 320 g/ha against LOLRI in % (LOLRI [12]): 90%; pest or weed control at 80 g/ha (VERPE; 80 g/ha): 80%; pest or weed control at 320 g/ha (VERPE; 320 g/ha): 80%; Pre-emergence effect at 320 g/ha against DIGSA in % (DIGSA [13]): 90%; pest or weed control at 80 g/ha (POLCO [14]; 80 g/ha): 80%; pest or weed control at 320 g/ha (POLCO [14]; 320 g/ha): 90%; pest or weed control at 80 g/ha (LOLRI [15]; 80 g/ha): 80%; pest or weed control at 320 g/ha (LOLRI [15]; 320 g/ha): 80%; Pre-emergence effect at 320 g/ha against AVEFA in % (AVEFA [16]): 80%; pest or weed control at 80 g/ha (DIGSA [17]; 80 g/ha): 80%; pest or weed control at 320 g/ha (DIGSA [17]; 320 g/ha): 90%; pest or weed control at 320 g/ha (SETVI [18]): 100%; Pre-emergence effect at 80 g/ha against ZEAMX in % (ZEAMX): 10%
